Data taken from patent publication US12714721B2, “Methods of treatment of a cytokine storm” (Loma Linda University Health, priority 2020, dated 2026).
Entries after “also recorded” stand apart in the source; their conditions may differ.

Test: Serum IGF-I in LPS-treated mice after IGF-I in vivo gene therapy
Parameters: species or system mouse
Conditions: LPS 20 mg/kg i.p., 7-day study, IGF-I gene therapy i.m. one day prior to LPS
Experimental: AKI inflammation was associated with a decrease in serum IGF-I. This deficiency was rescued by expression of IGF-1. An in vivo gene therapy approach was utilized. A lentiviral vector engineered to express IGF-I was injected into skeletal muscle of the mice. Constant IGF-I production was designed because IGF binding protein 3, which normally binds to and stabilizes IGF-1 in serum, is expected to decrease. This decrease is due to liver growth receptor depression and therefore the free IGF-I, being a small molecule, is excreted in the urine. By using in vivo gene therapy approach, the free IGF-I is available to the sites of injury in the kidney.
In this 7-day study, there was a marked drop in serum IGF-I from 337.5 to 85 ng/mL (p<0.001), as a consequence of LPS therapy (20 mg/kg body weight). […] Under normal conditions, IGF-I circulates bound to IGFBP3. However, under the conditions of LPS administration, IGFBP3 would be expected to be low. Consequently, IGF-1 produced by muscle should circulate as free IGF-I, which would be readily accessible through the remaining intact vasculature to the injured kidney.
Experimental Design for IGF-1 and BTP-2 studies—The animal experiments involved B6 mice between 5-8 weeks of age. […]

IGF-I: Insulin-like Growth Factor, delivered by a lentiviral vector engineered to express IGF-I injected into skeletal muscle
serum IGF-I: normalized the low serum IGF-I; also recorded: rescued this deficiency | serum IGF-I (listed as Lenti-IGF-I): rescued the serum IGF-I deficiency
